Experiments:
[1] = tested on: human foreskin keratinocytes (HFK); test: Long-term culture / immortalization of primary human foreskin keratinocytes on irradiated J2 feeder cells; assay type: cell-based
Protocol: Primary human foreskin keratinocytes (HFKs) were isolated and pooled from neonatal human foreskins from seven donors and grown in F medium (3: 1(v/v) F-12 Nutrient Mixture: DMEM, 5% FBS, 0.4 μg/ml hydrocortisone, 5 μg/ml insulin, 8.4 ng/ml cholera toxin, 10 ng/ml EGF, and 24 μg/ml adenine) (Jeon et al., Proc. Natl. Acad. Sci. USA 92:1654-1658, 1995) in the presence of irradiated J2 feeder cells. HFKs were divided into 10 cm plates, containing F-media with or without the addition of 10 μM Y-27632 (Alexis Biochemicals, San Diego, Calif.).
Human foreskin keratinocytes (HFKs) were isolated from pools of at least seven neonatal foreskins and grown in 154 medium supplemented with Human
Keratinocyte Growth Supplement and Gentamicin/Amphotericin (Invitrogen, Carlsbad, Calif.) or in F medium [3:1 (v/v) F-12 (Ham)-DMEM, 5% FBS, 0.4 μg/ml hydrocortisone, 5 μg/ml insulin, 8.4 ng/ml cholera toxin, 10 ng/ml EGF, 24 μg/ml adenine, 100 U penicillin, 100 μg/ml streptomycin (Invitrogen, cat no. 15140-148)] in the presence of irradiated 3T3 J2 feeder cells (Jeon et al., J. Virol. 69: 2989-2997, 1995).
The HPV18 cell line was established by introducing the HPV18 genome into primary HFKs using the Amaxa human keratinocyte nucleofection system. Primary human cervical keratinocytes (HCKs), human vaginal keratinocytes (HVKs), the HPV18 cell lines and the HPV31 positive cell line (CIN-612 9E) were grown in the presence or absence of 10 μM Y-27632 (Alexis Biochemicals), as indicated. Cells were subcultured by removing the fibroblast feeder cells with versene and keratinocytes were collected by trypsinization. At each pass, 2×10^5 cells were plated on a 10 cm plate of J2 feeder cells. Population doubling was calculated as: PD=3.32(log(# cells harvested/# cells seeded)). Immunodetection

[2] = tested on: HPV31; test: HPV31 genome copy number in CIN612 9E cells; assay type: cell-based, human papillomavirus; settings: 10 μM Y-27632, FIG. 8
Protocol: The 9E and W12 (20863 clone) cell lines were cultured in F-media on irradiated J2 feeder cells. For the Y-27632 experiments they were cultured in F-medium with or without 10 μM Y-27632 and continually passed for the times indicated.
Cloned viral genomes were cleaved with restriction enzymes to separate viral and vector sequences. The genomes were religated at a concentration of 5 μg/ml to favor intramolecular circularization. Prior to electroporation, J2 feeder cells were removed from the keratinocytes by versene treatment and the HFKs were collected by trypsinization. HFKs (1×10^6) were electroporated with 2 μg of re-circularized viral genomic DNA using the Amaxa Nucleofector II electroporator and the Human Keratinocyte Nucleofector Kit. The Amaxa program optimized for cell survival was used according to the manufacturer's specifications. Cells were removed from the cuvettes immediately following electroporation, and seeded onto 10 cm plates containing irradiated feeder cells and F-medium, in the presence or absence of 10 μM Y-27632, as indicated. At various times post-transfection, low molecular weight DNA was isolated by a modified Hirt extraction procedure (Ustav et al., EMBO J. 10:449-457, 1991). For Southern blot analysis, the isolated DNA was linearized with EcoRI or BamHI, depending on cloning site for each viral genome, and DpnI, to digest any unreplicated input DNA. […]

[3] = tested on: foreskin keratinocytes; test: Foreskin keratinocytes grown without fibroblast feeder cells, on plastic, serum-free medium; assay type: cell-based, human; settings: no fibroblast feeder cells
Protocol: Culturing keratinocytes in the presence of fibroblast feeder cells increases the lifespan of keratinocytes (Fu et al., Cancer Res. 63: 7815-7824, 2003; Rheinwald et al., Mol. Cell Biol. 22: 5157-5172, 2002) and might contribute to the observed immortalization by Y-27632. Therefore, the effect of Y-27632 on foreskin keratinocytes grown in the absence of fibroblast feeder cells, cultured on plastic and in serum-free medium was analyzed. […] Therefore, co-culture with feeder fibroblasts is required in concert with ROCK inhibition to immortalize keratinocytes.

[4] = tested on: hTERT mRNA; test: Real time QRT-PCR of hTERT mRNA; assay type: cell-based, human
Protocol: Total cellular RNA was isolated with TRIZol™ reagent (Invitrogen, Carlsbad, Calif.) and treated with DNA-free kit (Ambion, Austin, Tex.). First-strand cDNA was synthesized from 8 μg of total cellular RNA using the Superscript III First-Strand Synthesis System (Invitrogen, Carlsbad, Calif.). RNase H-treated cDNA from 20 ng RNA was amplified by quantitative real time PCR using the Taqman Gene Expression Assay for hTERT (Assay ID: Hs00972646_m1, Applied Biosystems) spanning exons 14 and 15 and human RPLP0 (large ribosomal protein) endogenous control, VIC/MGB Probe, primer limited (Applied Biosystems). All samples were run in triplicate using the ABI 7900HT system and the amount of product was calculated with reference to standard curves generated by 4-fold serial dilutions of a mixed set of cDNAs with high telomerase expression. Values were adjusted relative to the level of RPO transcripts.

[5] = tested on: p53; test: Immunodetection of p53 and p21 during culture; assay type: cell-based, human; settings: keratinocytes cultured with Y-27632
Protocol: Proteins were extracted in 2% sodium dodecyl sulfate (SDS), 50 mM Tris-HCl (pH 6.8), 10% glycerol supplemented with inhibitors Complete and PhosphoSTOP (Roche, Indianapolis, Ind.). Protein samples were resolved on NuPage gels, electrotransferred to Immobilon-P membrane (Millipore, Billerica, Mass.), and probed with the relevant antibodies before detection by chemiluminescence. Monoclonal antibody against p53 (DO-1) was obtained from Santa Cruz Biotechnology (Santa Cruz, Calif.). Monoclonal antibody against α-tubulin (B-5-1-2) was obtained from Sigma-Aldrich. Polyclonal antibodies against Myc (N-262), p21 (C-19), and p16 (C-20) were obtained from Santa Cruz Biotechnology.

[6] = tested on: p53 pathway; test: Growth arrest assay (DNA damage response to 0.5 nM actinomycin D); assay type: cell-based, human; settings: 0.5 nM actinomycin D 24 hours; Y-27632-treated HFKs at P122; FIG. 12B
Protocol: Keratinocytes (1-2×10^6) were seeded on a 10 cm plate. Forty-eight hours later they were treated with 0.5 nM actinomycin D for 24 hours. Protein extracts were prepared, as described above, and analyzed for p53 and p21 protein levels.

[7] = 10 μM Y-27632, Example 2, FIG. 14

CC(N)[C@H]1CC[C@H](C(=O)Nc2ccncc2)CC1 (single isomer, unassigned; (+)) [Y-27632, (+)-trans-N-(4-Pyridyl)-4-(1-aminoethyl)-cyclohexanecarboxamide]
continued division / growth rate beyond senescence of untreated cells (about 15 passages) ([1]; 10 μM Y-27632, Example 1): continued to divide without any decrease in growth rate
number of times treated cells were passed ([1]; 10 μM Y-27632, Example 1): at least 82 times
proliferation rate versus untreated cells ([1]; 10 μM Y-27632, Example 1): proliferated at a rate that exceeded the untreated cells almost immediately
time in continuous culture ([1]; 10 μM Y-27632, Example 1): over 10 months
passages in culture [1, 7]: up to 150 passages
period of culture [1, 7]: 500 days
bypass of senescence ([1]; 10 μM Y-27632, FIG. 9): efficiently bypassed senescence with no observed decline in growth rate
cellular proliferation ([1]; 10 μM Y-27632, FIG. 9): dramatic increase in cellular proliferation
population doubling (PD) to which cells were cultured, considered to be immortal ([1]; +Y-27632 (10 μM), HFK strain b): PD199
growth after withdrawal of Y-27632 ([1]; withdrawn at passage 48, after 196 days in culture): continued to grow unchecked with only a gradual slowing in the rate of population doubling
HPV31 copy number [2]: remained constant
proliferation in the absence of feeder cells [3]: somewhat increased proliferation
bypass of senescence in the absence of feeder cells ([3]; repeated experiments): did not bypass senescence
level of hTERT mRNA versus HPV18-immortalized keratinocytes ([4]; by passage 34 in Y-27632): comparable to those in HPV18-immortalized keratinocytes
level of hTERT mRNA ([4]; foreskin keratinocytes with passage in Y-27632, FIG. 11A): increased with passage
p21 induction [5]: not induced
p53 protein levels [5]: gradually increase
DNA damage response (p53 and p21 upregulation) [6]: normal DNA damage response

From US8637310B2, “Use of a rock inhibitor to sustain primary human keratinocytes in a proliferative state” (The United States of America, as represented by the …, priority 2008, dated 2014)
